According to ChEMBL document CHEMBL1201862, “PubChem BioAssay data set” (2004):
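Growth conditions: 96-well plates. Treatment: test compound, 48 hours, 5 concentrations. Analysis: linear interpolation between bracketing concentrations; unreached endpoints set to highest concentration. Here, GI50 denotes the concentration required for 50% inhibition of growth.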 Activity calls are given as the source filed them. No stated cut-off is given here; in the data, active = GI50 up to about 1.1 µM and inactive = higher.

Assays:
Assay in all cases: DTP human tumour cell line panel, 48 h
[1] = tested on: RXF 393
[2] = tested on: NCI-H226
[3] = tested on: MOLT-4
[4] = tested on: SF-268
[5] = tested on: COLO 205
[6] = tested on: CCRF-CEM
[7] = tested on: M14
[8] = tested on: HCT-116
[9] = tested on: HOP-62
[10] = tested on: SK-OV-3
[11] = tested on: TK-10
[12] = tested on: K562
[13] = tested on: HCT-15
[14] = tested on: OVCAR-4
[15] = tested on: SF-539
[16] = tested on: SNB-75
[17] = tested on: EKVX
[18] = tested on: KM12
[19] = tested on: MCF7
[20] = tested on: MDA-MB-435

Structure (SMILES)	GI50 [1]	GI50 [2]	GI50 [3]	GI50 [4]	GI50 [5]	GI50 [6]	GI50 [7]	GI50 [8]	GI50 [9]	GI50 [10]	GI50 [11]	GI50 [12]	GI50 [13]	GI50 [14]	GI50 [15]	GI50 [16]	GI50 [17]	GI50 [18]	GI50 [19]	GI50 [20]
C/C(=N\O)C(CN(C)C)C(c1ccccc1)c1c(O)c2ccccc2oc1=O (stereo not drawn)	> 100 µM (inactive)	> 100 µM (inactive)	> 100 µM (inactive)	> 100 µM (inactive)	> 100 µM (inactive)	> 100 µM (inactive)	> 100 µM (inactive)	> 100 µM (inactive)	> 100 µM (inactive)	> 100 µM (inactive)	> 100 µM (inactive)	> 100 µM (inactive)	> 100 µM	> 100 µM (inactive)	> 100 µM (inactive)	> 100 µM (inactive)	> 100 µM (inactive)	> 100 µM (inactive)		
CC(C)NC(=O)OCc1c2c(n(C)c1COC(=O)NC(C)C)-c1ccccc1CC2	12.5 µM (inactive)	11.9 µM (inactive)	2.61 µM (inactive)	10.2 µM (inactive)	8.05 µM (inactive)	2.07 µM (inactive)		10 µM (inactive)	13 µM (inactive)	15.7 µM (inactive)		4.26 µM (inactive)	14 µM	15 µM (inactive)	15.4 µM (inactive)	14.1 µM (inactive)	14.9 µM (inactive)	15.5 µM (inactive)	10.5 µM (inactive)	
CC1CN=C(N(Cc2ccc(F)cc2)C(=O)Nc2ccc(Cl)cc2)S1 (stereo not drawn)			27.7 µM (inactive)	21.4 µM (inactive)	30.3 µM (inactive)	28 µM (inactive)	0.51 µM (active)	22.3 µM (inactive)	93.3 µM (inactive)	> 100 µM (inactive)	21.8 µM (inactive)	9.23 µM (inactive)	6.22 µM	13.3 µM (inactive)	30.5 µM (inactive)	18.2 µM (inactive)	16.2 µM (inactive)	14 µM (inactive)	28.8 µM (inactive)	
CN(C)C(=N)NC(=S)N(C)C	> 100 µM (inactive)	17.2 µM (inactive)	> 100 µM (inactive)	> 100 µM (inactive)		> 100 µM (inactive)	> 100 µM (inactive)	> 100 µM (inactive)	> 100 µM (inactive)	> 100 µM (inactive)	> 100 µM (inactive)	> 100 µM (inactive)	> 100 µM	> 100 µM (inactive)	> 100 µM (inactive)	> 100 µM (inactive)	> 100 µM (inactive)	> 100 µM (inactive)		
Cc1cc(C)nc(NS(=O)(=O)c2ccc(NC(=O)COC(=O)c3cccc4c(=O)c5ccccc5[nH]c34)cc2)n1	36.5 µM (inactive)	53.3 µM (inactive)	31.3 µM (inactive)	37.7 µM (inactive)	48.8 µM (inactive)	34.3 µM (inactive)	56 µM (inactive)	23.7 µM (inactive)	23.7 µM (inactive)	38.8 µM (inactive)	76.4 µM (inactive)	32 µM (inactive)	> 100 µM	49.1 µM (inactive)	19.5 µM (inactive)	31 µM (inactive)	54.2 µM (inactive)	19.3 µM (inactive)		
C=CCN1C[C@H](C)N([C@H](c2ccc(C(=O)N(CC)CC)cc2)c2cccc(OC)c2)C[C@H]1C [SNC-80]		21.4 µM (inactive)	27.9 µM (inactive)	86.5 µM (inactive)	16.8 µM (inactive)		33.7 µM (inactive)	42.7 µM (inactive)	74.1 µM (inactive)	75.2 µM (inactive)	48 µM (inactive)		70.3 µM	73.8 µM (inactive)	51.5 µM (inactive)		> 100 µM (inactive)	50.8 µM (inactive)	39.1 µM (inactive)	34.7 µM (inactive)
Cc1cc(O)c(C(=O)O)c2c1C(=O)c1c(O)c(OCC(O)C(O)C(O)C(O)CO)c(O)c(O)c1C2=O.NCCNCCO (stereo not drawn)	> 100 µM (inactive)	> 100 µM (inactive)	> 100 µM (inactive)	> 100 µM (inactive)	> 100 µM (inactive)	> 100 µM (inactive)	> 100 µM (inactive)		> 100 µM (inactive)	> 100 µM (inactive)	> 100 µM (inactive)	> 100 µM (inactive)	> 100 µM	> 100 µM (inactive)	> 100 µM (inactive)	> 100 µM (inactive)	> 100 µM (inactive)	39.9 µM (inactive)		
CC(=O)OC1CC[C@@]2(C)C(CC(OC3OC(CO)C(O)C(O)C3O)[C@]3(C)C2CCC24CC23CC[C@H]4C(C)CC(O)[C@@H](O)C(C)(C)O)C1(C)C (stereo partly drawn)	12.5 µM (inactive)	17 µM (inactive)	11.4 µM (inactive)	18.4 µM (inactive)	9.4 µM (inactive)	11.4 µM (inactive)	12 µM (inactive)	9.91 µM (inactive)	18.6 µM (inactive)	> 50 µM (inactive)	22.9 µM (inactive)	15.4 µM (inactive)	> 50 µM	> 50 µM (inactive)	10.3 µM (inactive)	11.4 µM (inactive)	16.3 µM (inactive)	10.5 µM (inactive)		
COc1ccc(C(=O)Cc2ccc(Br)cc2)cc1OC	72.8 µM (inactive)	> 100 µM (inactive)	> 100 µM (inactive)	> 100 µM (inactive)		> 100 µM (inactive)	> 100 µM (inactive)	> 100 µM (inactive)	79.1 µM (inactive)	> 100 µM (inactive)	56 µM (inactive)	> 100 µM (inactive)	> 100 µM	> 100 µM (inactive)	> 100 µM (inactive)	27.5 µM (inactive)	> 100 µM (inactive)			
NCCC(=O)NC(Cc1c[nH]cn1)C(=O)O (stereo not drawn)		> 100 µM (inactive)	> 100 µM (inactive)	> 100 µM (inactive)	> 100 µM (inactive)	> 100 µM (inactive)	> 100 µM (inactive)	> 100 µM (inactive)	> 100 µM (inactive)		> 100 µM (inactive)	> 100 µM (inactive)	> 100 µM	> 100 µM (inactive)	> 100 µM (inactive)	> 100 µM (inactive)	> 100 µM (inactive)	> 100 µM (inactive)	> 100 µM (inactive)	> 100 µM (inactive)
CCOC(=O)NC(=O)c1cn(CCN(CCO)C(=O)NCCCCCCNC(=O)N(CCO)CCn2cc(C(=O)NC(=O)OCC)c(=O)[nH]c2=O)c(=O)[nH]c1=O	> 100 µM (inactive)	> 100 µM (inactive)	> 100 µM (inactive)	> 100 µM (inactive)	> 100 µM (inactive)	> 100 µM (inactive)		> 100 µM (inactive)	> 100 µM (inactive)			> 100 µM (inactive)	> 100 µM	> 100 µM (inactive)	> 100 µM (inactive)	> 100 µM (inactive)	> 100 µM (inactive)	> 100 µM (inactive)	> 100 µM (inactive)	
Oc1ccc(/C=C/c2cccc(/C=C/c3ccc(O)c(O)c3)n2)cc1O			3.27 µM (inactive)	10.7 µM (inactive)	14.2 µM (inactive)	2.75 µM (inactive)	5.58 µM (inactive)	5.98 µM (inactive)	22.2 µM (inactive)	16.1 µM (inactive)	11.4 µM (inactive)	3.86 µM (inactive)	22.7 µM	6.04 µM (inactive)	3.02 µM (inactive)	6.01 µM (inactive)	11.7 µM (inactive)	8.91 µM (inactive)	10.2 µM (inactive)	10.7 µM (inactive)
N#COc1ccc(Oc2ccc(OC#N)cc2)cc1	> 100 µM (inactive)	> 100 µM (inactive)	72.4 µM (inactive)	> 100 µM (inactive)	22.4 µM (inactive)	22.5 µM (inactive)	> 100 µM (inactive)	> 100 µM (inactive)	> 100 µM (inactive)	> 100 µM (inactive)	> 100 µM (inactive)	36.7 µM (inactive)	42.8 µM	> 100 µM (inactive)	43.5 µM (inactive)	93.5 µM (inactive)	> 100 µM (inactive)	> 100 µM (inactive)		
CCCCNC(=O)Cn1c2ccc(Br)cc2c2nc3ccccc3nc21	> 100 µM (inactive)	12.3 µM (inactive)	> 100 µM (inactive)	97.1 µM (inactive)	> 100 µM (inactive)	> 100 µM (inactive)	> 100 µM (inactive)	64.3 µM (inactive)	58.1 µM (inactive)		> 100 µM (inactive)	> 100 µM (inactive)				51.9 µM (inactive)		> 100 µM (inactive)		> 100 µM (inactive)
S=c1sc2c(s1)SCCCCSCCCCSc1sc(=S)sc1SCCCCSCCCCS2		> 100 µM (inactive)	> 100 µM (inactive)	93.1 µM (inactive)	> 100 µM (inactive)	> 100 µM (inactive)	> 100 µM (inactive)	> 100 µM (inactive)	> 100 µM (inactive)	> 100 µM (inactive)	> 100 µM (inactive)	> 100 µM (inactive)	> 100 µM		> 100 µM (inactive)	18.6 µM (inactive)	> 100 µM (inactive)	> 100 µM (inactive)	> 100 µM (inactive)	> 100 µM (inactive)
O=C(Cn1ccnc1[N+](=O)[O-])c1ccc(F)cc1	> 100 µM (inactive)	> 100 µM (inactive)	> 100 µM (inactive)	> 100 µM (inactive)	> 100 µM (inactive)	> 100 µM (inactive)	> 100 µM (inactive)		> 100 µM (inactive)	> 100 µM (inactive)	> 100 µM (inactive)	> 100 µM (inactive)	> 100 µM	> 100 µM (inactive)	> 100 µM (inactive)	> 100 µM (inactive)	> 100 µM (inactive)	> 100 µM (inactive)		
